The values that follow come from publication PMC7111280 (European Journal of Medicinal Chemistry, 2018).

In series [1] the test system is Hel cells. The note with it: Table 5, HSV/vaccinia assays, Hel cell morphology.
Series [2] concerns HSV-1 (TK−) KOS ACVr. The series can be described thus: microbe, parasite or virus in culture. Conditions: Human alphaherpesvirus 1, HEL, read-out: HSV-1 (TK−) KOS ACVr EC50. Format: cell-based, herpes simplex virus type 1.
Series [3] concerns vaccinia virus. The series can be described thus: microbe, parasite or virus in culture. Format: cell-based. The note with it: Orthopoxvirus vaccinia, HEL, read-out: vaccinia virus EC50.
Series [4] concerns L1210. The note with it: read-out: L1210 IC50; proliferation, Coulter Counter cell count; cited from earlier work.
Series [5] deals with CEM. The note with it: read-out: CEM IC50; proliferation, Coulter Counter cell count; cited from earlier work.
Series [6] has as its system HeLa. Conditions: read-out: HeLa IC50; proliferation, Coulter Counter cell count; cited from earlier work.
The subject of series [7] is HMVEC. The series can be described thus: Endothelial cell proliferation, Coulter counter. The note with it: Homo sapiens, 96 h, read-out: HMVEC IC50. Format: cell-based.
Series [8] concerns MDA-MB-231-LM2 cells. The series can be described thus: Metastatic breast cancer xenograft mouse model. Type of series: in vivo, SCID mice.
In series [9] the test system is CMV (AD-169). The series can be described thus: Antiviral cytopathicity assay in Hel cells. Format: cell-based, human cytomegalovirus. (Damage to the host cells serves as the signal in cytopathic effect assays.)

The structures appear in SMILES notation.

Take `Nc1nc2c(ncn2COCCO)c(=O)[nH]1` [Acyclovir, reference compound]: the “MCC (minimal cytotoxic concentration)” value in series [1] is more than 250 µM.
A word on the EC50: it is the concentration needed to bring the measured effect to its halfway point. Turning to `Nc1ccn(C[C@@H](CO)OCP(=O)(O)O)c(=O)n1.O.O` [Cidofovir], the results for the EC50 in series [2] and in [3] were 2000 nM and 22000 nM, respectively. Moreover, in [1], the “MCC (minimal cytotoxic concentration)” value is more than 250 µM.
Usually IC50 stands for the midpoint of a concentration-inhibition curve. In the case of `C#C[C@@]1(O)[C@@H](CO)O[C@@H](n2cnc3c(N)ncnc32)[C@@H]1O` [Compound 5, 3′-C-ethynyladenosine], the EC50 in [3] was 350 ± 50 nM. Further, the IC50 was 730 ± 140 nM in [4], 610 ± 80 nM in series [5] and 290 ± 110 nM in [6].
Consider `C#C[C@@]1(O)[C@@H](CO)O[C@@H](n2cc(F)c3c(N)ncnc32)[C@@H]1O` [Compound 31, 4-amino-5-fluoro-N7-(3′-C-ethynyl-β-D-ribofuranosyl)-pyrrolo[2,3-d]pyrimidine], for which the IC50 in [7] was less than 1.28 nM.
Regarding `C#C[C@@]1(O)[C@@H](CO)O[C@@H](n2cc(Cl)c3c(N)ncnc32)[C@@H]1O` [Compound 32, 4-amino-5-chloro-N7-(3′-C-ethynyl-β-D-ribofuranosyl)-pyrrolo[2,3-d]pyrimidine], the IC50 in series [7] is less than 1.28 nM. Further, the “tumor growth (BLI radiance, caliper)” value in [8] (0.3 mg/kg i.t., starting from day 18, after four i.t. injections) is reported as “significantly retarded”. For the same molecule, the “total metastasis burden in the lungs (BLI)” value in [8] (day 34 versus vehicle control group) is on record as “significantly lower”.
As to `C#C[C@@]1(O)[C@@H](CO)O[C@@H](n2cc(I)c3c(N)ncnc32)[C@@H]1O` [Compound 34, 4-amino-5-iodo-N7-(3′-C-ethynyl-β-D-ribofuranosyl)-pyrrolo[2,3-d]pyrimidine], the IC50 in series [7] is less than 1.28 nM.
As for `C#C[C@@]1(O)[C@@H](CO)O[C@@H](n2cc(Cl)c3c(Cl)ccnc32)[C@@H]1O` [Compound 66, 3,4-dichloro-N1-(3′-C-ethynyl-β-D-ribofuranosyl)-pyrrolo[2,3-b]pyridine], the selectivity index in series [9] (human cytomegalovirus (hCMV)) worked out at 10 fold. The “MCC (minimal cytotoxic concentration)” value in [1] was not below 100 µM.
With `C#C[C@@]1(O)[C@@H](CO)O[C@@H](n2cc(Br)c3c(Cl)ccnc32)[C@@H]1O` [Compound 67, 3-bromo-4-chloro-N1-(3′-C-ethynyl-β-D-ribofuranosyl)-pyrrolo[2,3-b]pyridine], the “MCC (minimal cytotoxic concentration)” value in series [1] was more than 100 µM.
In the case of `C#C[C@@]1(O)[C@@H](CO)O[C@@H](n2cc(I)c3c(Cl)ccnc32)[C@@H]1O` [Compound 68, 3-iodo-4-chloro-N1-(3′-C-ethynyl-β-D-ribofuranosyl)-pyrrolo[2,3-b]pyridine], the “MCC (minimal cytotoxic concentration)” value in series [1] was more than 100 µM.
For `C#C[C@@]1(O)[C@@H](CO)O[C@@H](n2ccc3c(Cl)ccnc32)[C@@H]1O` [Compound 70, 4-chloro-N1-(3′-C-ethynyl-β-D-ribofuranosyl)-pyrrolo[2,3-b]pyridine], in series [9], the “activity against hCMV” value was “inactive”. Moreover, the “MCC (minimal cytotoxic concentration)” value in series [1] is more than 100 µM.
Consider `Nc1nc(O)c2ncn(COC(CO)CO)c2n1` [Ganciclovir, reference compound], for which the “MCC (minimal cytotoxic concentration)” value in series [1] is more than 100 µM.
